Assay [1] has as its system Trichophyton rubrum. The experiment in a line: Methylene blue phototherapy of infected nail pieces, ex vivo. Also on record: key to Fungal growth on nail pieces after treatment: “G” indicates growth; “N” indicates no growth. It counts as cell-based. On the procedure:
Sterilized nail pieces were placed on fresh T.rubrum lawn to be infected for at least 10 days with dorsal side upwards. […] Control was carrier solution with no Methylene blue. […] The nails were exposed to red light (640 nm, 9 W—3 LED lights, 3 W each) for 30 min. Amount of viable fungal colonies of Trichophyton rubrum after treatment relative to control was observed using microscope and once visual continued to be monitored with the naked eye. Results are shown in Table 2, where “G” indicates growth and “N” indicates no growth. […] After 5 days mycelium growth was found for the 0.0625% and 0.03125% treatments. After 6 days of the treatment mycelium was found for the 0.125% treatments. […] Meaning that there is a need for a secondary treatment or alternative treatment in order to obtain prolonged inhibition of re-growth.

For assay [2], the system named is C. albicans. The following applies: low curcumin concentrations, planktonic and biofilm form; cited from earlier work.

SMILES strings stand for the structures.

Turning to `CN(C)c1ccc2nc3ccc(=[N+](C)C)cc-3sc2c1` [MB, Methylene blue], the “Fungal growth on nail pieces after treatment” value (“Fungal growth on nail pieces” below) was “N” in assay [1] (0.03% MB in carrier, red light 640 nm 30 min, Day 3); “N” in assay [1] (0.03% MB in carrier, red light 640 nm 30 min, Day 4); “G” in assay [1] (0.03% MB in carrier, red light 640 nm 30 min, Day 6); “G” in assay [1] (0.03% MB in carrier, red light 640 nm 30 min, Day 7); “G” in assay [1] (0.03% MB in carrier, red light 640 nm 30 min, Day 8); “G” in assay [1] (0.03% MB in carrier, red light 640 nm 30 min, Day 9). Also, the “Fungal growth on nail pieces” value in assay [1] (0.03% MB in carrier, red light 640 nm 30 min, Day 10) is reported as “G”; in assay [1] (0.03% MB in carrier, red light 640 nm 30 min, Day 12), “G”; in assay [1] (0.03% MB in carrier, red light 640 nm 30 min, Day 13), “G”; in assay [1] (0.0625% MB in carrier, red light 640 nm 30 min, Day 3) it was “N”; in assay [1] (0.0625% MB in carrier, red light 640 nm 30 min, Day 4), “N”; in assay [1] (0.0625% MB in carrier, red light 640 nm 30 min, Day 6) it was “G”. Further, the “Fungal growth on nail pieces” value in assay [1] (0.0625% MB in carrier, red light 640 nm 30 min, Day 7) is “G”; in assay [1] (0.0625% MB in carrier, red light 640 nm 30 min, Day 8), “G”; in assay [1] (0.0625% MB in carrier, red light 640 nm 30 min, Day 9), “G”; in assay [1] (0.0625% MB in carrier, red light 640 nm 30 min, Day 10), “G”; in assay [1] (0.0625% MB in carrier, red light 640 nm 30 min, Day 12) it was “G”; in assay [1] (0.0625% MB in carrier, red light 640 nm 30 min, Day 13), “G”. The “Fungal growth on nail pieces” value is listed as “N” in assay [1] (0.125% MB in carrier, red light 640 nm 30 min, Day 3); “N” in assay [1] (0.125% MB in carrier, red light 640 nm 30 min, Day 4); “N” in assay [1] (0.125% MB in carrier, red light 640 nm 30 min, Day 6); “G” in assay [1] (0.125% MB in carrier, red light 640 nm 30 min, Day 7); “G” in assay [1] (0.125% MB in carrier, red light 640 nm 30 min, Day 8); “G” in assay [1] (0.125% MB in carrier, red light 640 nm 30 min, Day 9). Besides, the “Fungal growth on nail pieces” value in assay [1] (0.125% MB in carrier, red light 640 nm 30 min, Day 10) is listed as “G”; in assay [1] (0.125% MB in carrier, red light 640 nm 30 min, Day 12) it was “G”; in assay [1] (0.125% MB in carrier, red light 640 nm 30 min, Day 13), “G”; in assay [1] (0.25% MB in carrier, red light 640 nm 30 min, Day 3) it was “N”; in assay [1] (0.25% MB in carrier, red light 640 nm 30 min, Day 4) it was “N”; in assay [1] (0.25% MB in carrier, red light 640 nm 30 min, Day 6) it was “N”. In addition, the “Fungal growth on nail pieces” value was “N” in assay [1] (0.25% MB in carrier, red light 640 nm 30 min, Day 7); “N” in assay [1] (0.25% MB in carrier, red light 640 nm 30 min, Day 8); “N” in assay [1] (0.25% MB in carrier, red light 640 nm 30 min, Day 9); “N” in assay [1] (0.25% MB in carrier, red light 640 nm 30 min, Day 10); “N” in assay [1] (0.25% MB in carrier, red light 640 nm 30 min, Day 12); “G” in assay [1] (0.25% MB in carrier, red light 640 nm 30 min, Day 13). Moreover, the “Days after treatment at which mycelium growth was found” value in assay [1] (0.03125% MB, red light 640 nm 30 min) stood at 5 days; in assay [1] (0.0625% MB, red light 640 nm 30 min), 5 days; in assay [1] (0.125% MB, red light 640 nm 30 min), 6 days. Further, in assay [1] (0.25% MB, red light 640 nm 30 min), the “Days after treatment at which growth was found” value came to 12 days. The “Effect on fungus growth” value in assay [1] (MB alone (without light), separate experiment) is on record as “did not kill nor inhibit”.
Regarding `COc1cc(/C=C/C(=O)CC(=O)/C=C/c2ccc(O)c(OC)c2)ccc1O` [curcumin, diferuloylmethane], in assay [2], the “photoinactivating C. albicans” value was “highly effective”.

(Values after patent US20210046137A1, “ANTIMICROBIAL PHOTOSENSITIZER COMPOSITION AND METHOD” (ToeFX Inc., priority 2018, published 2021).)
